# pIC50: −log10 of the molar value. Where two headings read alike, the source gives them in different places. Ends that are not written are not given here.
# What was measured:
# [1] = tested on: Human red blood cells; assay type: cell-based; conditions: for hemolysis: red cells of human, 1 h
# Experimental: Human red blood cells were washed three times using phosphate buffered saline (PBS: 35 mM phosphate buffer, 0.15 M NaCl, pH 7.0) prior to performing the assay. One hundred μL of human red blood cells suspended in 0.4% (v/v) PBS was placed in eppendorf tubes, and 100 μL of serially diluted peptides in PBS was added (peptide concentration ranged from 1 μM to 100 μM). Tubes were incubated for 1 hr at 37° C. and centrifuged at 1000 g for 5 min. One hundred μL aliquots of the supernatant was then transferred to eppendorf tubes, and hemolysis was measured by absorbance at 414 nm. Zero percentage hemolysis and 100% hemolysis were determined in PBS and in 1% Triton-X 100, respectively. The hemolysis percentage was calculated using the following formula: % hemolysis=[(A414 in the peptide solution−A414 in PBS)/(A414 in 1% Triton-X 100−A414 in PBS)]×100.
# [2] = tested on: Staphylococcus aureus MNHO; test: Bactericidal assay, Gram-positive S. aureus MNHO; assay type: cell-based; conditions: Table 4; SC-4 variants; SD about ±30%
# Excerpt: (§1) Pseudomonas aeruginosa type 1 is a clinical, smooth strain isolate serotyped by using the scheme of Homma, Japan. J. Exp. Med. 46, 329–336 (1976) and maintained in the lab by monthly transfer on blood agar plates. E. coli J96, IA2, and H5 are smooth strain, uropathogenic clinical isolates kindly maintained and provided by J. R. Johnson and described in Johnson et al., J. Infect. Disease 173, 920–926 (1996) for J96 and IA2 and in Johnson et al., J. Infect. Disease 173, 746–749 (1996) for H5. J5 is an E. coli rough strain initially referenced by G. R. Siber and discussed in Warren et al., Infect. Immunity 55, 1668–1673 (1987) and is analogous to the smooth strain E. coli 0111:B4 used in the BioWhittaker LAL endotoxin detection and quantitation kit described below. Gram-positive MN8 and MNHO are two patient isolates of Staphylococcus aureus, which were kindly provided by P. M. Schlievert and described in Bohach et al., Rev. Infect. Diseases 11, 75–82 (1989) for MNHO and in Schlievert et al., J. Infect. Diseases 147, 236–242 (1983) for MN8. All cultures are maintained on nutrient agar plates.
# (§2) Pyrogen-free solutions were used throughout the assay. Log phase bacteria were obtained by transferring an overnight culture or scraping crystals off −85° C. glycerol stocks of overnight cultures. Bacteria were washed and resuspended in 0.9% sodium chloride with adjustment to an optical density at 650 nm which yields 3×10^8 CFU/ml. Bacteria were then diluted 1:10 in 0.08 M citrate phosphate buffer, pH 7.0 (prepared by mixing 0.08 M citric acid with 0.08 M dibasic sodium phosphate). Bacteria (0.15 ml) were incubated with peptide in a final volume of 1.0 ml of buffer. The assay was done in 17×100 polypropylene tubes in a reciprocal water bath shaker at 37° C. for 30 minutes. Following this 30 minute (min) incubation, 10-fold dilutions were made in 0.9% sodium chloride. Dilutions were done to 10^−4 and 20 μl of each dilution was streaked across an agar plate. Gram-positive organisms were plated on nutrient agar plates containing 2% agar and Gram-negative organisms were plated on MacConkey agar (2%). Plates were incubated overnight at 37° C. and counted the next morning. The dilution containing 10–100 bacteria was counted and the number multiplied by 50 to adjust all counts to the number bacteria killed per milliliter. Peptide concentrations were converted to logarithm base ten and graphed. Bactericidal activity was determined by dose response where LD50 values were determined by best fits of a sigmoidal curve to the dose response data.
# [3] = tested on: E. coli 055:B5 LPS; test: Limulus amoebocyte lysate assay for LPS neutralization; assay type: biochemical; conditions: for drop in LPS neutralizing activity relative to SC-4: SC-3: relative to either SC-4 or SC-5
# Excerpt: The ability of synthetic peptides to neutralize endotoxin was detected using the chromogenic QCL-1000 kit from BioWhittaker, Inc. (Walkersville, Md.) as described in their protocol. This method is quantitative for Gram-negative bacterial endotoxin (lipopolysaccharide, LPS). In the Limulus amebocyte lysate (LAL) assay, peptides that are active inhibit the LPS-mediated activation of a proenzyme (Young et al., J. Clin. Invest. 51, 1790–1797 (1972)) whose active form would release p-nitroaniline (pNA) from a colorless synthetic substrate (Ac-Ile-Glu-Ala-Arg-pNA), producing a yellow color (pNA) whose absorption is monitored spectrophotometrically at 405–410 nm. The initial rate of enzyme activation is proportional to the concentration of endotoxin present. The concentration of peptide required to bind to LPS and therefore to inhibit the Limulus amoebocyte lysate driven by 0.04 unit (or 0.01 ng) of E. coli 055:B5 LPS (from SIGMA) was determined by dose response.
# [4] = tested on: Pseudomonas aeruginosa type 1; test: Bactericidal assay, P. aeruginosa (P.a.); assay type: cell-based; conditions: Table 4; SC-4 variants; SD about ±30%
# Excerpt: as §1, §2
# [5] = tested on: E. coli J5; test: Bactericidal assay, rough strain E. coli J5; assay type: cell-based; conditions: for LD50 bactericidal activity, Gram-neg. rough J5: Table 4, SC-4 variants, SD about ±30%
# Excerpt: as §1, §2
# [6] = tested on: E. coli J96; assay type: cell-based; conditions: J96
# Excerpt: as §1
# as §2, with “The assay was done in 17×100 polypropylene tubes in a reciprocal water bath shaker at 37° C. for 30 minutes. Following this 30 minute (min) incubation, 10-fold dilutions were made in 0.9% sodium chloride. Dilutions were done to 10^−4 and 20 μl of each dilution was streaked across an agar plate. Gram-positive organisms were plated on nutrient agar plates containing 2% agar and Gram-negative organisms were plated on MacConkey agar (2%).” left out, “Peptide concentrations were converted to logarithm base ten and graphed.” left out
# [7] = tested on: bacteria; conditions: Alvarez-Bravo et al. 1995; cited from earlier work
# [8] = Table 4, SC-4 variants, SD about ±30%, read-out: LPS neutralization IC50
# [9] = read-out: IC50 LPS neutralization
Substance,hemolysis ([1]; 1e-4 M),"LD50 bactericidal activity, Gram-positive MNHO [2]","pIC50 [3, 8]","LD50 bactericidal activity, Gram-neg. smooth P.a. [4]","LD50 bactericidal activity, Gram-neg. rough J5 [5]",other results
"ANIKLSVQMKLF-NH2 [SC-1, ANIKLSVQMKLF]",around 70%,,,,,hemolysis ([1]; 1e-6 M): 15-30%
"ANIKLSVQMKLFKRHLKWKIIVKLNDGRELSLD-NH2 [βpep-25, reference compound]",about 5%,,,,,
K L F K K H L K W K I I-NH2 [SC-408],,2 10^−6 M,3.00,0.07 10^−6 M,0.003 10^−6 M,LPS neutralization in words [3]: does not affect LPS binding; drop in LPS neutralizing activity relative to SC-4 [3]: about 500 fold
K L F K R H L K W X I I-NH2 [SC-407],,1 10^−6 M,5.52,0.05 10^−6 M,0.007 10^−6 M,LPS neutralization in words [3]: essentially no affect
K L F K R H L X W K I I-NH2 [SC-406],,2 10^−6 M,5.52,0.05 10^−6 M,0.005 10^−6 M,LPS neutralization in words [3]: essentially no affect
K L F K X H L K W K I I-NH2 [SC-409],,0.3 10^−6 M,5.52,0.22 10^−6 M,0.001 10^−6 M,LPS neutralization in words [3]: nearly full activity
K L F X R H L K W K I I-NH2 [SC-405],,0.4 10^−6 M,5.15,0.17 10^−6 M,0.006 10^−6 M,drop in LPS neutralizing activity relative to SC-4 [3]: about 3 fold
"KIIVKLNDGREL-NH2 [SC-7, KIIVKLNDGREL]",~15%,,,,,
"KLFKRHLKWKII-NH2 [SC-4, KLFKRHLKWKII]",~10%,,,,,concentration below which not hemolytic [1]: ≥ 10^−4 M; LD50 ([5]; against J5 (Gram-negative bacteria)): 3 nM; LD50 [6]: 250 nM
KLKLLLLLKLK-NH2 [antibacterial peptide of the literature forming channels in bacterial membranes],,,,,,effective antibacterial concentration [7]: 100 µM
"KLSVQMKLFKRH-NH2 [SC-2, KLSVQMKLFKRH]",~15%,,,,,
"KRHLKWKIIVKL-NH2 [SC-5, KRHLKWKIIVKL]",around 70%,,,,,hemolysis ([1]; 1e-6 M): 15-30%
"LKWKIIVKLNDG-NH2 [SC-6, LKWKIIVKLNDG]",~15%,,,,,
"MKLFKRHLKWKI [SC-402, M K L F K R H L K W K I-NH2]",,6 10^−6 M,4.60,0.07 10^−6 M,0.005 10^−6 M,"drop in LPS neutralizing activity relative to SC-4 [3]: 12 fold; pIC50 [3, 9]: 4.60"
"MKLFKRHLKWKIIV [SC-403, M K L F K R H L K W K I I V-NH2]",,0.4 10^−6 M,5.22,0.05 10^−6 M,0.002 10^−6 M,
"QMKLFKRHLKWK [SC-401, Q M K L F K R H L K W K-NH2]",,XXX (XXX means not active at concentrations below 1 × 10^−5 M.),,0.06 10^−6 M,0.004 10^−6 M,"drop in LPS neutralizing activity relative to SC-3 [3]: 5 fold; drop in LPS neutralizing activity relative to SC-4 [3]: 60 fold; pIC50 [3, 9]: 3.90"
"VKLNDGRELSLD-NH2 [SC-8, VKLNDGRELSLD]",~10%,,,,,
"VQMKLFKRHLKW-NH2 [SC-3, VQMKLFKRHLKW]",~10%,,,,,
X L F K R H L K W K I I-NH2 [SC-404],,1 10^−6 M,5.15,0.22 10^−6 M,0.004 10^−6 M,drop in LPS neutralizing activity relative to SC-4 [3]: about 3 fold
